Laboratory results as given in PMC6264335, “Synthesis of Quinolin-2-one Alkaloid Derivatives and Their Inhibitory Activities against HIV-1 Reverse Transcriptase” (Molecules, 2011).
Several values for one entry are separate records, joined by “and”; a condition that tells them apart may be missing. Equal entries are not always repeated.

Biological target: recombinant HIV-1 RT (Human immunodeficiency virus type 1 group M subtype B, UniProt P04585)
Experiment: HIV-1 RT inhibitory assay (ELISA RT kit, Roche)
Settings: IC50 (effective concentration that inhibits 50% of HIV-1 RT), mean of two independent experiments
Description: HIV-1 reverse transcriptase (RT) activity was measured using a commercially available ELISA RT kit (Roche) according to the instructions of the manufacturer. The compounds were incubated with DIG-labeled reaction mixture at 37 °C for 2 h, then anti-DIG-POD solution was added, followed by substrate ABTS.

Row | Compound | IC50
1 | O=c1cc(Sc2ccccc2)c2cc(Cl)ccc2[nH]1 [Compound 4a1, 6-Chloro-4-(phenylthio)quinolin-2(1H)-one] | 5.6 µM
2 | Cc1cc(C)cc(Sc2cc(=O)[nH]c3ccc(Cl)cc23)c1 [Compound 4a2, 6-Chloro-4-(3,5-dimethylphenylthio)quinolin-2(1H)-one] | 0.21 µM
3 | Cc1cc(C)cc(Sc2cc(=O)[nH]c3ccccc23)c1 [Compound 4a3, 4-(3,5-dimethylphenylthio)quinolin-2(1H)-one] | 13 µM and 18 µM
4 | O=c1cc([S+]([O-])c2ccccc2)c2cc(Cl)ccc2[nH]1 (stereo not shown) [Compound 4b1, 6-Chloro-4-(phenylsulfinyl)quinolin-2(1H)-one] | 8.9 µM
5 | Cc1cc(C)cc([S+]([O-])c2cc(=O)[nH]c3ccc(Cl)cc23)c1 (stereo not shown) [Compound 4b2, 6-Chloro-4-(3,5-dimethylphenylsulfinyl)quinolin-2(1H)-one] | 2.6 µM
6 | O=c1cc(S(=O)(=O)c2ccccc2)c2cc(Cl)ccc2[nH]1 [Compound 4c1, 6-Chloro-4-(phenylsulfonyl)quinolin-2(1H)-one] | 49 µM
7 | Cc1cc(C)cc(S(=O)(=O)c2cc(=O)[nH]c3ccc(Cl)cc23)c1 [Compound 4c2, 6-Chloro-4-(3,5-dimethylphenylsulfonyl)quinolin-2(1H)-one] | 10 µM
8 | O=c1cc(Oc2ccccc2)c2cc(Cl)ccc2[nH]1 [Compound 4d1, 6-Chloro-4-phenoxyquinolin-2(1H)-one] | 3 µM
9 | Cc1cc(C)cc(Oc2cc(=O)[nH]c3ccc(Cl)cc23)c1 [Compound 4d2, 6-Chloro-4-(3,5-dimethylphenoxy)quinolin-2(1H)-one] | 0.15 µM
10 | O=c1cc(-c2ccccc2)c2cc(Cl)ccc2[nH]1 [Compound 5a, 6-Chloro-4-phenylquinolin-2(1H)-one] | > 100 µM
11 | O=c1cc(-c2ccccc2F)c2cc(Cl)ccc2[nH]1 [Compound 5b, 6-Chloro-4-(2-fluorophenyl)quinolin-2(1H)-one] | > 100 µM
12 | O=c1cc(-c2ccccc2Cl)c2cc(Cl)ccc2[nH]1 [Compound 5c, 6-Chloro-4-(2-chlorophenyl)quinolin-2(1H)-one] | > 100 µM

Biological target: HIV-1 reverse transcriptase (RT)
Experiment: not given
Design: method as in PMID 8778237
Settings: cited from earlier work

Row | Compound | IC50 [µM]
13 | CC(C)=CCOc1c(CC=C(C)C)c(=O)[nH]c2ccccc12 [Compound 3] | 8
